For assay [1], the system named is Immature Sprague Dawley CD (SD) BR female rats. Nature of the assay: In vivo Rat Follicle Maturation Assay (ovulated oocytes after r-hCG). The note with it: for ovulatable oocytes compared with high dose of FSH alone: 0.4 mg/kg combined with low dose of FSH; for effect on FSH-induced follicle maturation: in vivo, with FSH.
Assay [2] shares this test system. Put plainly: Histological count of secondary and antral follicles in rat ovaries. It counts as in vivo.
A further assay deals with PDE3. Conditions: cited from earlier work.
The next assay deals with PDE1. The note with it: cited from earlier work.
Another assay concerns the target PDE5 (Homo sapiens, UniProt O76074). Conditions: cited from earlier work.
The mark [3] stands for this setting: test compound 1 mg/kg×4 injections s.c. in NP3S with Low Dose FSH.
The mark [4] stands for this setting: test compound 1 mg/kg×4 s.c. in NP3S with Low Dose FSH.
[5] abbreviates: test compound 5 mg/kg×4 injections s.c. in NP3S with Low Dose FSH.
Setting [6] is: test compound 5 mg/kg×4 s.c. in NP3S with Low Dose FSH.
[7] abbreviates: test compound 5 mg/kg×4 s.c. in aqueous vehicle with Low Dose FSH.
Setting [8] is: test compound 25 mg/kg×4 injections s.c. in NP3S with Low Dose FSH.
Where [9] appears, read: test compound 25 mg/kg×4 s.c. in NP3S with Low Dose FSH.

“Also recorded” adds a separate entry of the source. A value given as a limit tells only on which side of the number the result lay.

Take `COc1ccc([C@H](Cc2ccncc2)c2ccccc2)cc1OC1CCCC1` [CDP840]: in assay [1], the “Follicular growth activity with Low FSH?” value was “Inhibits follicular growth”.

`CCCc1nn(C)c2c(=O)[nH]c(-c3cc(S(=O)(=O)N4CCN(C)CC4)ccc3OCC)nc12` [Sildenafil, 5-[2-ethoxy-5-(4-methyl-1-piperazinylsulphonyl)phenyl]-1-methyl-3-n-propyl-1,6-dihydro-7H-pyrazolo[4,3-d]pyrimidin-7-one]: in assay [2] (Low FSH + 75 mg/kg Sildenafil), the “total number of antral follicles per rat (2 ovaries)” value is 7.4. For the same compound, the “total number of secondary follicles per rat (2 ovaries)” value in assay [2] (Low FSH + 75 mg/kg Sildenafil (25 mg/kg×3)) is given as 84. For the same compound, the “number of ovulated oocytes per rat as compared to Low Dose FSH alone plus aqueous vehicle control” value in assay [1] (1, 5 and 25 mg/kg×4 s.c. in aqueous vehicle with Low Dose FSH) is “dose-related increase”. The “average number of oocytes per rat” value in assay [1] (setting [3]) came to 3.5; in assay [1] (setting [5]), 5.5; in assay [1] (setting [7]), 20; in assay [1] (setting [8]), 6.9. For the same compound, the rats ovulated is 6 out of 8 in assay [1] (setting [4]), 5 out of 8 in assay [1] (setting [6]), 7 out of 8 in assay [1] (setting [7]) and 7 out of 8 in assay [1] (setting [9]). In addition, the “Follicular growth activity with Low FSH?” value in assay [1] is “YES”. The IC50 with PDE3 was […]; in the assay with PDE1 it was 260 nM.

For `CN1CC(=O)N2[C@H](c3ccc4c(c3)OCO4)c3[nH]c4ccccc4c3C[C@@H]2C1=O` [Tadalafil, (6R,12aR)-2,3,6,7,12,12a-hexahydro-2-methyl-6-(-3,4-methylenedioxyphenyl)pyrazino[2′,1′:6,1]pyrido[3,4-b]indole-1,4-dione], the “average number of oocytes per rat” value in assay [1] (test compound 25 mg/kg×4 s.c. in water with Low Dose FSH) came out at 16. Besides, the “Follicular growth activity with Low FSH?” value in assay [1] is “YES”. Moreover, in the assay with PDE1, the IC50 was > 30000 nM.

Regarding `CCCOc1cc([C@]2(C)CNC(=O)O2)ccc1OC` [Mesopram], the “follicular maturation, lower dose series” value in assay [1] (0.032, 0.016, 0.08 mg/kg together with a low dose of FSH, significance at 0.08 mg/kg) is recorded as “dose dependent increase in follicular maturation”. Besides, the “follicular maturation versus low FSH alone” value in assay [1] (0.08, 0.4, and 2 mg/kg/day together with a low dose of FSH) is “significant enhancement of follicular maturation”. Besides, the “follicular maturation at higher doses” value in assay [1] (higher doses of the 0.08-2 mg/kg/day series, with low dose FSH) is reported as “decrease in follicular maturation”.

In the case of `COc1ccc(C(=O)Nc2c(Cl)cncc2Cl)cc1OC1CCCC1` [Piclamilast], in assay [1], the “ovulatable oocytes compared with high dose of FSH alone” value is reported as “produces more ovulatable oocytes than even the high dose of FSH alone”. Besides, the “follicle maturation, compound alone” value in assay [1] (2 mg/kg, without co-administration of FSH) is “did induce follicle maturation; also recorded: increased the hCG ovulatable oocytes”; in assay [1] (0.08 and 0.4 mg/kg, absence of exogenous FSH) it was “not sufficient to induce follicle maturation”. In assay [1] (in the presence of low doses of FSH), the “follicle maturation (number of ovulatable oocytes)” value is given as “very marked induction in follicle maturation”. Besides, the “effect on FSH-induced follicle maturation” value in assay [1] was “increased FSH-induced follicle maturation”.

With `OCCN(CCO)c1nc(N2CCCCC2)c2nc(N(CCO)CCO)nc(N3CCCCC3)c2n1` [Dipyridamole], the “average number of oocytes per rat” value turned out to be 7.5 in assay [1] (setting [3]), 6.8 in assay [1] (setting [5]) and 6.2 in assay [1] (setting [8]). In addition, the rats ovulated is given as 7 out of 10 in assay [1] (setting [4]), 6 out of 10 in assay [1] (setting [6]) and 10 out of 10 in assay [1] (setting [9]). Further, the “Follicular growth activity with Low FSH?” value in assay [1] is recorded as “YES”.

In the case of `COc1ccc([C@]2(C#N)CC[C@@H](C(=O)O)CC2)cc1OC1CCCC1` [ARIFLO (Cilomilast), Cilomilast], in assay [1], the “Follicular growth activity with Low FSH?” value is recorded as “Inhibits follicular growth”.

Take `O=C(Nc1c(Cl)cncc1Cl)c1ccc(OC(F)F)c(OCC2CC2)c1` [Roflumilast]: in assay [1], the “ovulatable oocytes compared with high dose of FSH alone” value was “produces more ovulatable oocytes than even the high dose of FSH alone” and the “effect on FSH-induced follicle maturation” value is “increased FSH-induced follicle maturation”.

Take “5′-Methyl-2′(biphenylylmethyl)-3′-(phenylmethyl)spiro[cyclopentane-1,7′(8′h)-[3H]imidazo[2,1-b]purin]-4(5′h)-one [Compound no. 33]”: the 50% inhibitory concentration (IC50) on PDE5 was 200 nM; with PDE1, 0.6 nM. For the same compound, the “average number of oocytes per rat” value in assay [1] (setting [8]) is recorded as 27. The “Follicular growth activity with Low FSH?” value in assay [1] is “YES”.

With “(6aR,9aS)-2-(Biphenylylmethyl)-5,6a,7,8,9,9a-hexahydro-5-methyl-3(phenylmethyl)cyclopent[4,5]imidazo-[2,1-b]purin-4(3H)-one [Compound no. 31]”, the IC50 was 305 nM at PDE5 and 0.07 nM in the assay on PDE1. Also, in assay [1] (setting [8]), the “average number of oocytes per rat” value is 18. Also, the “Follicular growth activity with Low FSH?” value in assay [1] was “YES”.

Turning to `CCCOc1ccccc1-c1nc2nn[nH]c2c(=O)[nH]1` [Zaprinast], the “average number of oocytes per rat” value in assay [1] (setting [3]) was determined as 3.25; in assay [1] (setting [5]), 6.4; in assay [1] (setting [8]), 9.5. Moreover, the rats ovulated in assay [1] (setting [4]) was 6 out of 10; in assay [1] (setting [6]), 9 out of 10; in assay [1] (setting [9]), 10 out of 10. The “Follicular growth activity with Low FSH?” value in assay [1] was “YES”. Also, the figures for the IC50 in the assay on PDE3 and in the assay on PDE1 were > 100000 nM and 9400 nM, respectively.

The term IC50 denotes the point on the concentration scale where inhibition reaches its midpoint.

Source of the values: US7153824B2, “Inhibitors of phosphodiesterases in infertility” (Applied Research Systems ARS Holding N.V., priority 2003, dated 2006).
